Assay results from US9150529B2, “Piperazine derivatives, methods for preparing same, and uses thereof in the treatment of insulin resistance” (METABOLYS, priority 2011, dated 2015).

System: db/db mouse
Test: Antidiabetic activity in db/db mouse (drop in glycaemia after oral administration)
Type: in vivo
Conditions: 8 weeks old, 200 mg/kg per os, blood from tail, glucometer; for Drop in glycaemia (in % of the initial value) After 1 hour: 1 hour after administration; for Drop in glycaemia (in % of the initial value) After 2 hours: 2 hours after administration
Procedure: The antidiabetic activity of the compounds of formula (I) orally on a type 2 diabetes animal model, the db/db mouse, was tested. Diabetic mice are used at the age of 8 weeks; they then have very high hyperglycaemia. The animals are stabilised at a minimum for one week after reception and up to the day of experimentation in an animal house at a temperature regulated at 21°-22° C. and subjected to a fixed cycle of light (from 7 a.m. to 7 p.m.) and darkness (from 7 p.m. to 7 a.m.). Their food consisted of a maintenance regime; water and food were supplied “ad libitum”. The mice are treated orally with the product to be tested (200 mg/kg per os) in suspension in a mixture of water and methyl cellulose or the vehicle (mixture of water and methyl cellulose) in the morning of the day of the experimentation. Just before the administration of the product and one and two hours after the administration of the product, a blood sample (one drop of blood) is taken following a small incision in the tail for determining glycaemia. This glycaemia is measured by means of a glucometer (Lifescan OneTouch Ultra, LifeScan, Johnson-Johnson Company) and OneTouchUltra glycaemia measurement strips.

| SMILES | Drop in glycaemia (in % of the initial value) After 1 hour [%] | Drop in glycaemia (in % of the initial value) After 2 hours [%] |
| --- | --- | --- |
| O=C(O)CCC(=O)c1ccc(OCCN2CCN(c3ccccn3)CC2)cc1 [Compound 10] | 23 | 39 |
| COc1cccc(N2CCN(CCOc3ccc(C(=O)CCC(=O)O)cc3)CC2)c1 [Compound 12] | 19 | 32 |
| O=C(O)CCC(=O)c1ccc(OCCN2CCN(c3ccc(F)cc3)CC2)cc1 [Compound 5] | 5 | 23 |
| COc1ccc(N2CCN(CCOc3ccc(C(=O)CCC(=O)O)cc3)CC2)cc1 [Compound 2] | 7 | 12 |
| CN(C)C(=N)N=C(N)N [Metformin, reference compound] | 22 | 27 |
| O=C(O)CCC(=O)c1ccc(OCCN2CCN(c3cccc(F)c3)CC2)cc1 [Compound 4] | 9 | 20 |
| O=C(O)CCC(=O)c1ccc(OCCN2CCN(c3ccccc3F)CC2)cc1 [Compound 3] | 23 | 29 |
